# Laboratory results reported in PMC5312080 (mBio, 2017).
# “And” between values parts separate entries of the source, which are not always exact repeats. Equal entries are not always repeated.
# System: clinical drug-susceptible and drug-resistant M. tuberculosis strains
# Assay: microbe, parasite or virus in culture
# Format: cell-based
# Conditions: Mycobacterium tuberculosis
row,Compound,MIC
1,"COc1ccc(-c2cc(NC(=O)c3ccc(F)cc3Cl)ccc2OC)cc1 [DG70, 2-chloro-N-(4',6-dimethoxy-[1,1'-biphenyl]-3-yl)-4-fluorobenzamide]",1.2 to 9.6 µg/mL

# Same assay, conditions: Mycobacterium tuberculosis, H37RV
row,Compound,MIC90
1,"NNC(=O)c1ccncc1 [INH, isoniazid]",0.05 µg/mL

# Same assay, conditions: Mycobacterium tuberculosis, H37RV; read-out: MIC90
row,Compound,MIC90
1,"COc1ccc(-c2cc(NC(=O)c3ccc(F)cc3Cl)ccc2OC)cc1 [DG70, 2-chloro-N-(4',6-dimethoxy-[1,1'-biphenyl]-3-yl)-4-fluorobenzamide]",4.8 µg/mL

# System: DG70-resistant mutants of H37Rv
# Assay: not given
# Format: cell-based, Mycobacterium tuberculosis
# Conditions: not given
Compound,DG70 MIC90,MIC in Mtb P3 V20A,MIC in Mtb P7 F118L
"COc1ccc(-c2cc(NC(=O)c3ccc(F)cc3Cl)ccc2OC)cc1 [DG70, 2-chloro-N-(4',6-dimethoxy-[1,1'-biphenyl]-3-yl)-4-fluorobenzamide]",>80 µg/mL and 40 µg/mL,>80 µg/mL,40 µg/mL
COc1ccc(-c2cccc(NC(=O)c3ccc(F)cc3Cl)c2)cc1 [JSF-2907],,>80 µg/mL,>80 µg/mL
COc1ccc(-c2cc(NC(=O)c3ccccc3Cl)ccc2OC)cc1 [JSF-2908],,>40 µg/mL,>40 µg/mL
COc1ccc(-c2cc(NC(=O)c3ccc(F)cc3)ccc2OC)cc1 [JSF-2909],,>80 µg/mL,>80 µg/mL
O=C(Nc1cccc(-c2ccccc2)c1)c1ccc(F)cc1Cl [JSF-2910],,>40 µg/mL,>40 µg/mL
COc1ccc(-c2cc(NC(=O)c3ccccc3)ccc2OC)cc1 [JSF-2912],,>40 µg/mL,>40 µg/mL
COc1ccc(NC(=O)c2ccc(F)cc2Cl)cc1 [JSF-2926],,40 µg/mL,40 µg/mL
COc1ccc(-c2cc(N(C)C(=O)c3ccc(F)cc3Cl)ccc2OC)cc1 [JSF-2949],,>40 µg/mL,>40 µg/mL
O=C(Nc1ccc(O)c(-c2ccc(O)cc2)c1)c1ccc(F)cc1Cl [JSF-2950],,>40 µg/mL,>40 µg/mL
COc1ccc(-c2cc(NCc3ccc(F)cc3Cl)ccc2OC)cc1 [JSF-2951],,>80 µg/mL,>80 µg/mL
COc1ccc(NC(=O)c2ccc(F)cc2Cl)cc1-c1ccccc1 [JSF-2971],,40 µg/mL,40 µg/mL
